Laboratory results from US12269793B2, “Affinity illudofulvene conjugates” (AF Chemicals, LLC, priority 2019, dated 2025).
Like-named read-outs stand apart in the source and are kept apart here. Where a SMILES comes first, the peptide text is derived from it. [ ]: non-standard residue; d: D form. The star is where a group is joined. X4 = CC1=C(C*)C2=C(C)C3(CC3)[C@@](C)(O)C(=O)C2=C1

Tests used:
[1] = tested on: 8392B Nontarget Cell Line (hematopoietic); assay: cells; conditions: 2 h, read-out: Mean IC50 value, 8392B Nontarget Cell Line, 2 hr exposure, ± SD, N = 3 unless otherwise indicated
[2] = tested on: 8392B Nontarget Cell Line (hematopoietic); assay: cells; conditions: 48 h, read-out: Mean IC50 value
[3] = tested on: MV522 Target Cell Line (lung-derived adenocarcinoma); assay: cells; conditions: MV522, 2 h, read-out: Mean IC50 value
[4] = tested on: MV522 Target Cell Line (lung-derived adenocarcinoma); assay: cells; conditions: MV522, 48 h, read-out: Mean IC50 value
NCI 60 cell line panel = assay: NCI DTP 60 cell line screen assay; conditions: for Activity Value: NCI 60 cell line screen, negative = lyse tumor cells, zero = no growth, positive = slower growth
Excerpt: An ADC is engulfed by a tumor cell, transported to the endosomes (pH<6.0) and then into the lysozomes (pH<4). […] 4). Cancer cells can become resistant to various toxins and drugs through the development of what is termed multi-drug resistance. This process is known to occur through several different mechanisms.

[5] = tested on: 8392B Nontarget Cell Line (hematopoietic); conditions: read-out: Mean IC50 value, 2 hr exposure, ± SD, N = 3 unless otherwise indicated
[6] = tested on: 8392B Nontarget Cell Line (hematopoietic); conditions: read-out: Mean IC50 value, 48 hr exposure, ± SD, N = 3 unless otherwise indicated

Structure (SMILES) | IC50 [1] [µM] | IC50 [2] [µM] | IC50 [3] [µM] | IC50 [4] [µM] | also measured
CC1=C(CCC=NNc2ccc([N+](=O)[O-])cc2[N+](=O)[O-])C2=C(C)C3(CC3)[C@@](C)(O)C(=O)C2=C1 [Analog 125] | 15.5 ± 1.4 | 0.6 ± 0.1 | 3.7 ± 0.6 |  | 
CC(=O)OCOCC1=C(C)C=C2C(=O)[C@](C)(O)C3(CC3)C(C)=C21 [Analog 008] |  | 15.1 ± 2.2 | 0.87 ± 0.09 | 0.63 ± 0.08 | 
CC(=O)OC[C@]1(C)C=C2C(=O)[C@](C)(O)C3(CC3)C(C)=C2[C@H]1OC(=O)N(C)CCN(C)C(=O)OC(C)(C)C [Analog 334] |  |  |  |  | Activity Value (NCI 60 cell line panel): −11; MDR Activity (NCI 60 cell line panel): Yes
CC1=C(CCCO)C2=C(C)C3(CC3)[C@@](C)(O)C(=O)C2=C1 [Analog 009] | 47.1 ± 11 | 43.2 ± 2.3 |  |  | 
CC1=C([N+](=O)[O-])C2=C(C)C3(CC3)[C@@](C)(O)C(=O)C2=C1 [Analog 012] | 42.2 ± 5 | 18.8 ± 2.8 | 5.15 ± 1.35 | 0.32 ± 0.09 | 
C/C(=C\c1csc(C)n1)[C@@H]1C[C@@H]2O[C@@H]2CCC[C@H](C)[C@H](O)[C@@H](C)C(=O)C(C)(C)[C@@H](O)CC(=O)O1 [Epothilone A] |  |  |  |  | Activity Value (NCI 60 cell line panel): +31
CC1=C(CCC(=O)OC2CCC3(C)C(CCC4C3CC[C@]3(C)C(=O)CCC43)C2)C2=C(C)C3(CC3)[C@@](C)(O)C(=O)C2=C1 (stereo partly drawn) [Analog 112] | 14.9 ± 0.1 | 5.2 ± 0.3 |  |  | 
CC1=C2C(=C[C@@](C)(C=O)[C@@H]2O)C(=O)[C@](C)(O)C12CC2 [Analog 383] |  |  |  |  | Activity Value (NCI 60 cell line panel): −1; MDR Activity (NCI 60 cell line panel): Yes
CCOCC1=C(C)C=C2C(=O)[C@](C)(O)C3(CC3)C(C)=C21 [Analog 016] | > 100 | 0.87 ± 0.06 | 0.49 ± 0.13 |  | 
CC1=CC2=C(C)C3(CC3)[C@@](C)(O)C(O)C2=C1 (stereo partly drawn) [Analog 129] | > 136 | 39.4 ± 9.2 | > 136 | 19.7 ± 1.9 | 
CC1=C(CCC2CO2)C2=C(C)C3(CC3)[C@@](C)(O)C(=O)C2=C1 (stereo partly drawn) [Analog 114] | 25.1 ± 1 | 0.7 ± 0.1 | 1.5 ± 0.1 | 0.26 ± 0.07 | 
CCCCCCCC/C=C/CCCCCCCC(=O)OCCCC1=C(C)C=C2C(=O)[C@](C)(O)C3(CC3)C(C)=C21 [Analog 227] |  |  |  |  | IC50 [5]: > 57 µM
CCOC(CCC1=C(C)C=C2C(=O)[C@](C)(O)C3(CC3)C(C)=C21)OCC [Analog 040] |  | 5.2 ± 0.47 |  |  | 
CC(=O)N[C@@H](CSCC1=C(C)C=C2C(=O)[C@](C)(O)C3(CC3)C(C)=C21)C(=O)N[C@@H](CC(C)C)C(=O)NCC(=O)N[C@@H](C=O)Cc1ccccc1 [Analog 084] (Ac-C(X4)LG[dF]-aldehyde) |  | > 42 |  | 28.2 ± 1.4 | 
CC1=CC2=C(C)C3(CC3)[C@@](C)(O)C(=O)C2=C1 [Analog 001] |  | 0.83 ± 0.1 | 2.2 ± 0.1 | 0.35 ± 0.02 | 
COC(=O)C1=C(C(=O)OC)C23C=C(C)C1C2=C(C)C1(CC1)[C@@](C)(O)C3=O (stereo partly drawn) [Analog 142] |  |  |  |  | Activity Value (NCI 60 cell line panel): −5; MDR Activity (NCI 60 cell line panel): Yes
CC1=C(CCC(C)O)C2=C(C)C3(CC3)[C@@](C)(O)C(=O)C2=C1 (stereo partly drawn) [Analog 128] | > 35 | 0.8 ± 0.07 | 0.84 ± 0.23 | 0.37 ± 0.05 | 
CC1=C2C(=CC(C)(CO[Si](C)(C)C(C)(C)C)C2OC(=O)c2ccc(S(=O)(=O)F)cc2)C(=O)C(C)(O)C12CC2 (stereo not drawn) [Analog 219] |  |  |  |  | IC50 [5]: > 52 µM; IC50 [6]: > 52 µM
CC1=C2C(O)C(C)(C)C3CC23C(=O)C(C)(O)C12CC2 (stereo not drawn) [Analog 252] |  |  |  |  | IC50 [5]: > 380 µM; IC50 [6]: > 380 µM
COc1cc2cc(c1Cl)N(C)C(=O)C[C@H](OC(=O)[C@H](C)N(C)C(=O)CCS)[C@]1(C)O[C@H]1[C@H](C)[C@@H]1C[C@@](O)(NC(=O)O1)[C@H](OC)/C=C/C=C(\C)C2 [DM1] |  |  |  |  | Activity Value (NCI 60 cell line panel): +8
CC1=C(COCC(O)CO)C2=C(C)C3(CC3)[C@@](C)(O)C(=O)C2=C1 (stereo partly drawn) [Analog 019] | > 75 |  | 0.47 ± 0.06 | 0.66 ± 0.08 | 
CC1=C2C(=C[C@@](C)(COC(=O)CCCC(=O)O)C2OC(=O)CCCC(=O)O)C(=O)[C@](C)(O)C12CC2 (stereo partly drawn) [Analog 117] |  | 0.01 ± 0.002 |  |  | 
COc1cc2cc(c1Cl)N(C)C(=O)C[C@H](OC(=O)[C@H](C)N(C)C(C)=O)[C@]1(C)O[C@H]1[C@H](C)[C@@H]1C[C@@](O)(NC(=O)O1)[C@H](OC)/C=C/C=C(\C)C2 [Maytansine] |  |  |  |  | GI50 (NCI 60 cell line panel; 60 cell, read-out: Mean GI50 inhibition): 0.019 µM; Mean LD50 cytotoxic (NCI 60 cell line panel; NCI DTP 60 cell line, mean): 49,200 nM
